Experimental findings from patent US20210363495A1, “CULTURE MEDIA FOR PLURIPOTENT STEM CELLS” (Yeda Research and Development Co. Ltd., priority 2019, published 2021) are described below.

Experiment [1] has as its system Tet-OFF-METTL3 hESCs (WIBR3, clone W3G4). The experiment can be described thus: Pluripotency (OCT4+) maintenance of Tet-OFF-METTL3 hESCs in the presence of DOX. It is filed as cell-based, human. To be noted: for expanding METTL3 depleted cells when substituted for TNKi: optimized ENHSM conditions without TNKi, DOX up to 4 passages; for expansion of Tet-OFF-METTL3 on DOX: individual small molecule supplemented to NHSM, Geltrex coated plates, no MEFs. An excerpt:
FIGS. 1A-I Defining enhanced human naive conditions compatible with expanding METTL3 depleted PSCs. A. Strategy for generating human ESCs with TET-OFF regulated expression of METTL3 m^6A methyltransferase enzyme. B. Western blot analysis for correctly engineered human ESCs with TET-OFF METTL3 regulation, before and after DOX treatment. C. Representative images for human METTL3 TET-OFF engineered cells in different conditions with or without DOX addition. […] D. Scheme depicting strategy for conducting a screen for identifying a small molecule or cytokine additive to previously described human naïve NHSM conditions that allow maintain pluripotency in TET-OFF METTL3 human stem cells after adding DOX. E. W3G4 cells were maintained in the presence of DOX for up to 4 passages in different conditions and stained for OCT4 to quantify percentage of cells that retained their pluripotency. […] F. OCT4+ pluripotency maintenance in NHSM conditions supplemented with various TNK inhibitors and DOX to repress METTL3 expression. G. Quantification of ΔPE-OCT4-GFP knock in naïve pluripotency reporter, in variety of primed (red) and naïve conditions (blue). Mean fluorescence intensity values (MFI) are indicated. H. Quantification of ΔPE-OCT4-GFP knock in naïve pluripotency reporter in variety of conditions with various concentrations of ACTIVIN A recombinant cytokine. […] I. Representative phase contrast images in human ESCs expanded in NHSM+TNKi conditions showing their maintenance of pluripotent domed-like morphology even in the presence of FGFRi.
In order to identify culture conditions which capture human naïve PSC, the present inventors looked for agents which are capable of maintaining stem cells in a pluripotent state in the absence of defined epigenetic repressors. Human knock-in WIBR3 hESC lines with conditional inducible ablation expression of METTL3 were engineered (FIG. 1A). This was carried out by introducing an exogenous METTL3 transgene under the regulation of Tet-OFF promoter (Liao et al., 2015), followed by CRISPR/Cas9 mediated ablation of both endogenous human METTL3 alleles. Two resultant clones were validated for METTL3 expression only from the exogenous allele, which can be shut off by addition of DOX to the media (called Tet-OFF-METTL3 lines) (FIG. 1B).
The latter further support rewiring toward naïve pluripotency in NHSM conditions. […] Candidate molecules were tested for the ability to enrich NHSM conditions that allow Tet-OFF-METTL3 to be maintained on Geltrex coated plates in the presence of DOX.
NHSM conditions were supplemented with individual small molecules (FIG. 1D). […] IWR1 is a WNT inhibitor (WNTi) small molecule that stabilizes AXIN protein in the cytoplasm by inhibiting Tankyrase enzyme (abbreviated herein as TNK inhibitor—TNKi).

Experiment [2] has as its system human ESCs. The experiment can be described thus: Domed morphology under TGF/ACTIVIN signalling blockade. It is filed as cell-based. An excerpt: FIGS. 1A-I Defining enhanced human naive conditions compatible with expanding METTL3 depleted PSCs. A. Strategy for generating human ESCs with TET-OFF regulated expression of METTL3 m^6A methyltransferase enzyme. B. Western blot analysis for correctly engineered human ESCs with TET-OFF METTL3 regulation, before and after DOX treatment. C. Representative images for human METTL3 TET-OFF engineered cells in different conditions with or without DOX addition. […] E. W3G4 cells were maintained in the presence of DOX for up to 4 passages in different conditions and stained for OCT4 to quantify percentage of cells that retained their pluripotency. […] G. Quantification of ΔPE-OCT4-GFP knock in naïve pluripotency reporter, in variety of primed (red) and naïve conditions (blue). Mean fluorescence intensity values (MFI) are indicated. H. Quantification of ΔPE-OCT4-GFP knock in naïve pluripotency reporter in variety of conditions with various concentrations of ACTIVIN A recombinant cytokine. […]
FIGS. 3A-I. Defining enhanced human naive conditions compatible with blocking TGF/ACTIVIN signaling. […] F. Mass spectrometry-based quantification of m^6A on isolated mRNA from the indicated cell lines and conditions. […]

Experiment [3] has as its system WIBR2 hESC carrying MECP2 fluorescent reporter alleles. The experiment can be described thus: X chromosome reactivation, MECP2 two-colour reporter FACS. It counts as cell-based, human. To be noted: added to ENHSM without ERKi (0ENHSM) or with 0.33 microM ERKi (tENHSM). From the text: FIGS. 17A-D. Chromosome X reactivation status and DNA methylation profile in ENHSM based conditions. A. Schematic and FACS results following using WIBR2 (person 46XX) 29-9 hESC line that carries GFP and mCherry on each of the X chromosomes in the MECP2 locus. Parental 29-9 clone has the X chromosome carrying mCherry allele in the active state, and thus is positive only for mCherry and negative for GFP in the primed state. Upon transfer to ENHSM conditions, all cells turn on both X chromosomes and thus become double positive for both fluorescent markers (GFP and mCherry). After transfer into primed conditions (i.e. repriming), cells start to inactivate the X chromosome again. B. RNA-FISH analysis for ATRX transcription in primed and ENHSM WIBR3 cells. Note ATRX is active on both X chromosomes only in ENHSM conditions. C. Western blot analysis for DNA methylation regulators, DNMT1 and UHRF enzymes. DNMT1 protein levels are maintained in all conditions. […] D. Global methylation histogram as calculated from primed samples, and naïve samples that were maintained in various conditions, including titrated ERKi supplementation, along with previously published Reset-naïve and primed samples (Takashima et al), and human ICM samples (Smith et al, Nature 2014, Guo et al, Nature 2014). […]

As to `COc1cccc(-c2cn(-c3ccc(CCN4CCC(O)CC4)cc3)c3ncnc(N)c23)c1` [CGP77675], in experiment [1] (TNKi supplemented optimized NHSM, no ACTIVIN A, on DOX), the “maintenance of OCT4+ cells without ACTIVIN A” value is listed as “dramatically maintained the stability of dome like cells that were uniformly OCT4+”.

Consider `Cc1cccc(-c2nn(C(=S)Nc3ccccc3)cc2-c2ccnc3ccccc23)n1` [Condition A83-01], for which the “domed morphology after TGFRi” value was “maintained” in experiment [2] (cells in ENHSM); “lose their pluripotent dome-like shaped morphology and differentiate” in experiment [2] (cells in NHSM+TNKi).

Take `C[C@H](NC(=O)Cc1cc(F)cc(F)c1)C(=O)N[C@@H]1C(=O)N(C)c2ccccc2-c2ccccc21` [DBZ]: in experiment [3], the “maintenance of pre-X inactivation naïve state when ERKi is omitted or depleted” value was “allowed robust and feeder free maintenance of human naïve cells”. Regarding `O=C1Cc2c([nH]c3ccc(Br)cc23)-c2ccccc2N1` [Kenpaullone], the “expanding METTL3 depleted cells when substituted for TNKi” value in experiment [1] is listed as “none of them allowed expanding METTL3 depleted cells in vitro”. On the same count and under the same terms, under `CCCC(CCC)C(=O)O` [VPA] stands “none of them allowed expanding METTL3 depleted cells in vitro”. Regarding `Oc1nc(-c2ccc(C(F)(F)F)cc2)nc2c1CSCC2` [XAV939], the “expansion of Tet-OFF-METTL3 on DOX” value in experiment [1] is recorded as “yielded a similar effect”.

Consider `O=C(Nc1cccc2cccnc12)c1ccc(N2C(=O)[C@@H]3[C@H](C2=O)[C@H]2C=C[C@@H]3C2)cc1` [exo-IWR1], for which the “expansion of Tet-OFF-METTL3 on DOX” value in experiment [1] was “failed to do so”.

B1: ACTIVIN A: recombinant cytokine, activator of TGF/ACTIVIN pathway (protein)
chain: MPLLWLRGFLLASCWIIVRSSPTPGSEGHSAAPDCPSCALAALPKDVPNSQPEMVEAVKKHILNMLHLKKRPDVTQPVPKAALLNAIRKLHVGKVGENGYVEIEDDIGRRAEMNELMEQTSEIITFAESGTARKTLHFEISKEGSDLSVVERAEVWLFLKVPKANRTRTKVTIRLFQQQKHPQGSLDTGEEAEEVGLKGERSELLLSEKVVDARKSTWHVFPVSSSIQRLLDQGKSSLDVRIACEQCQESGASLVLLGKKKKKEEEGEGKKKGGGEGGAGADEEKEQSHRPFLMLQARQSEDHPHRRRRRGLECDGKVNICCKKQFFVSFKDIGWNDWIIAPSGYHANYCEGECPSHIAGTSGSSLSFHSTVINHYRMRGHSPFANLKSCCVPTKLRPMSMLYYDDGQNIIKKDIQNMIVEECGCS
modifications: homo sapiens
As for B1, the “maintenance of pre-X inactivation naïve state when ERKi is omitted or depleted” value in experiment [3] is listed as “did not block loss X reactivation”.
